{"source": "patent US20150072856A1", "about": "“ADJUVANTS BASED ON OPTIONALLY ALKOXYLATED REACTION PRODUCTS OF GLYCEROL CARBONATE AND ALKYLAMINES” (BASF SE, priority 2012, published 2015)", "type_in_all_cases": "in vivo", "conditions_in_all_cases": "300 g/ha adjuvant, 375 l/ha tank mix, score vs untreated plants", "key": {"[1]": {"test_system": "winter wheat (cultivar Cubus)", "assay": "Greenhouse herbicidal activity of glyphosate tank mix with adjuvant on wheat", "procedure": "(§1) An aqueous formulation (SL type) was prepared by dissolving 52.3 wt % potassium glyphosate in water. As adjuvant the ethoxylated (10 equivalents) carbamate from Example 1 was added and dissolved in the resulting SL formulation. This SL formulation was diluted with water to prepare a tank mix, which contained 0.8 g/l of the adjuvant, 0.75 g/l of the potassium glyphosate (or as alternative tank mix 0.37 g/l). This tankmix may be applied at 375 l/ha (corresponding to 300 g/ha adjuvant and 280 g/ha glyphosate (or 140 g/ha as alternative).\n(§2) For the greenhouse tests, various crops (winter wheat (cultivar Cubus), maize (cultivar Amadeo), soybean (cultivar Delta P.), rapeseed) was sown or potted in loamy sandy soil to a depth of 1-2 cm. When the plants had reached a growth height of 10 to 25 cm (i.e., around 10 to 21 days after sowing), the spray mixtures were applied to the plants in a spraying cabin.\n(§3) The tank mix prepared in Example 7 was applied at a application rate of 375 l/ha (140 or 280 g of glyphosate/ha and 300 g of adjuvant/ha). The temperatures in the experimental period, which lasted for 3 to 4 weeks, were between 18-35° C. […]\n(§4) The herbicidal activity was evaluated by awarding scores to the treated plants in comparison to the untreated control plants (Table 1 and 2). […]"}, "maize (cultivar Amadeo)": {"test_system": "maize (cultivar Amadeo)", "assay": "Greenhouse herbicidal activity of glyphosate tank mix with adjuvant on maize", "procedure": "as §1, §2, §3, §4"}, "[2]": {"test_system": "soybean (cultivar Delta P.)", "assay": "Greenhouse herbicidal activity of glyphosate tank mix with adjuvant on soybean", "procedure": "as §1, §2, §3, §4"}, "rapeseed": {"test_system": "rapeseed", "assay": "Greenhouse herbicidal activity of glyphosate tank mix with adjuvant on rapeseed", "procedure": "as §1, §2, §3, §4"}}, "data": [{"smiles": "O=C(O)CNCP(=O)([O-])O.[K+]", "note": "[—, potassium glyphosate]", "values": [{"measurement": "Activity [%] after 21 days DAT, Wheat", "setting": "[1]; 140 g/ha glyphosate", "result": 8, "unit": "%"}, {"measurement": "Activity [%] after 21 days DAT, Wheat", "setting": "[1]; 280 g/ha glyphosate", "result": 31, "unit": "%"}, {"measurement": "Activity [%] after 21 days DAT, Maize", "setting": "maize (cultivar Amadeo); 140 g/ha glyphosate", "result": 13, "unit": "%"}, {"measurement": "Activity [%] after 21 days DAT, Maize", "setting": "maize (cultivar Amadeo); 280 g/ha glyphosate", "result": 63, "unit": "%"}, {"measurement": "Activity [%] after 21 days DAT, Soybean", "setting": "[2]; 140 g/ha glyphosate", "result": 0, "unit": "%"}, {"measurement": "Activity [%] after 21 days DAT, Soybean", "setting": "[2]; 280 g/ha glyphosate", "result": 0, "unit": "%"}, {"measurement": "Activity [%] after 21 days DAT, Rapeseed", "setting": "rapeseed; 140 g/ha glyphosate", "result": 0, "unit": "%"}, {"measurement": "Activity [%] after 21 days DAT, Rapeseed", "setting": "rapeseed; 280 g/ha glyphosate", "result": 0, "unit": "%"}]}]}
